# Laboratory results published in patent US20140051664A1, “COMBINATION THERAPY OF HSP90 INHIBITORY COMPOUNDS WITH RADIOTHERAPY” (SYNTA PHARMACEUTICALS CORP., priority 2011, published 2014).
# How the values were obtained:
# [1] = Body weight and systemic toxicity in HeLaHL tumor-bearing Nude mice of the xenograft study; assay type: in vivo; conditions: for animals removed from the study due to >20% body weight loss: 8 mice/group; for average bodyweight change relative to the start of the study: over the course of the study
# Method: Eight week old, female homozygous Crl:CD1-Foxn1^nu/nu (Nude) mice were obtained from Charles River Laboratories (Wilmington, Mass., USA). Animals were housed 4-5/cage in micro-isolators, with a 12 hr/12 hr light/dark cycle, acclimated for at least 1 week prior to use and fed normal laboratory chow ad libitum. Studies were conducted on animals at 10 weeks of age at implantation. To implant HeLaHL tumor cells into Nude mice, cell cultures were trypsinized as above and centrifuged to pellet the cells. The supernatant was aspirated and the cell pellet was resuspended at a concentration of 1×10^8 cells/mL in non-supplemented media. Cell concentration was determined using a hemocytometer. Using a 27 gauge needle and 1 cc syringe, 0.1 mL of the cell suspension was injected subcutaneously into the flanks of Nude mice. Tumor volumes (V) were calculated by caliper measurement of the width (W), length (L) and thickness (T) of tumors using the following formula: V=0.5236×(L×W×T).
# To formulate Compound 1 in 10/18 DRD, stock solutions of Compound 1 were prepared by dissolving the appropriate amounts of the compound in dimethyl sulfoxide (DMSO) by sonication in an ultrasonic water bath. Stock solutions were prepared weekly, stored at −20° C. and diluted fresh each day for dosing. A solution of 20% Cremophor RH40 (polyoxyl 40 hydrogenated castor oil; BASF Corp., Aktiengesellschaft, Ludwigshafen, Germany) in 5% dextrose in water (D5W; Abbott Laboratories, North Chicago, Ill., USA) was also prepared by first heating 100% Cremophor RH40 at 50-60° C. until liquefied and clear, diluting 1:5 with 100% D5W, reheating again until clear and then mixing well. This solution was stored at room temperature for up to 3 months prior to use. To prepare 10/18 DRD formulations for daily dosing, DMSO stock solutions were diluted 1:10 with 20% Cremophor RH40. The final 10/18 DRD formulation for dosing contained 10% DMSO, 18% Cremophor RH40, 3.6% dextrose, 68.4% water and the appropriate amount of test article. Animals were intravenously (i.v.) injected with this formulation at 10 mL per kg body weight on one day each week (on the same day with one of the 3 weekly radiation doses) for a total of 4 doses.
# Animals were irradiated using a calibrated ^137Cs gamma-ray (0.662 MeV) Model 30 Mark I irradiator (J. L. Shepherd & Associates, San Fernando, Calif., USA). Tumor-bearing animals were anesthetized for approximately 4 minutes with inhaled isoflurane (IsoFlo, Abbott Laboratories, North Chicago, Ill., USA) delivered on a stream of oxygen at 0.8 L/min and 3% volume/volume on a mobile anesthesia machine (VetEquip, Pleasanton, Calif., USA). […] Anesthetized animals were positioned in the irradiator approximately 2.5 cm in front of the ^137Cs source using a restraint device capable of holding 5 animals (J. L Shepherd & Associates). Ionizing radiation was focused on the subcutaneously implanted HeLaHL tumors through a 1 cm wide collimator (J. L. […]
# The ability of Compound 1 to enhance the in vivo anti-tumor activity of ionizing radiation was investigated. Tumor-bearing animals (8 mice/group) were i.v. injected 1 time per week for a total of 4 doses (open arrowheads) with 10 mL/kg of 10/18 DRD vehicle with or without 150 mg/kg Compound 1. Animals were also irradiated 3 times per week for a total of 12 doses (closed arrowheads) with 2 Gy radiation. In the combination treatment group, animals were dosed with Compound 15 hr before being irradiated on days on which both treatments were delivered together. Each group that was not dosed with Compound 1 was instead dosed with 10/18 DRD vehicle as a mock treatment. Each group that was not irradiated was instead anesthetized and restrained as a mock irradiation. Average tumor volumes for each group were determined every 3-5 days (error bars represent +/−SEM). […]
# [2] = tested on: HeLaHL human cervical carcinoma tumor cells; assay: Nude mouse xenograft study: in vivo growth of HeLaHL tumors, Compound 1 with or without fractionated ionizing radiation; conditions: HeLaHL xenograft in Nude mice
# Method: The human cervical carcinoma cancer cell line, HeLaHL, carrying a human Hsp70 promoter-luciferase reporter construct, was obtained from the laboratory of Dr. Richard Morimoto (Northwestern University, Evanston, Ill., USA). The cells were cultured in Dulbecco's Modified Eagle growth media prepared with 10% fetal bovine serum (FBS), 1% 100×HEPES, 1% 100× Penicillin-Streptomycin, 1% 100×L-glutamine, 1% 100× sodium pyruvate and 1% 100×MEM non-essential amino acids. FBS was obtained from American Type Culture Collection (Manassas, Va., USA) and all other reagents were obtained from Invitrogen Corp. (Carlsbad, Calif., USA). Cells that had been cryopreserved in liquid nitrogen were rapidly thawed at 37° C. and transferred to a tissue culture flask containing growth media and then incubated at 37° C. in a 5% CO2 incubator. To expand the cell line, cultures were passaged every 3 to 4 days by washing with 10 mL of room temperature phosphate buffered saline (PBS) and then disassociating cells by adding 5 mL 1× trypsin-EDTA until the cells detached from the surface of the flask. […]
# Eight week old, female homozygous Crl:CD1-Foxn1^nu/nu (Nude) mice were obtained from Charles River Laboratories (Wilmington, Mass., USA). […] Cell concentration was determined using a hemocytometer. […] Tumor volumes (V) were calculated by caliper measurement of the width (W), length (L) and thickness (T) of tumors using the following formula: V=0.5236×(L×W×T).
# HeLaHL tumors were then permitted to develop in vivo until the majority reached 90-240 mm^3 in tumor volume, which required approximately 2½ weeks following implantation. […] Animals were randomized into treatment groups so that the average tumor volumes of each group were similar at the start of dosing. % T/C values, as a measure of efficacy, were determined as follows: • (i) If ΔT>0: % T/C=(ΔT/ΔC)×100 • (ii) If ΔT<0: % T/C=(ΔT/T0)×100 • (iii) ΔT=Change in average tumor volume between start of dosing and the end of study. • (iv) ΔC=Change in average tumor volume between start of dosing and the end of study. • (v) T0=Average tumor volume at start of dosing. […]
smiles,measurement,setting,value
"CC(C)c1cc(-c2nnc(O)n2-c2ccc3c(ccn3C)c2)c(O)cc1O [Compound 1, 3-(2,4-dihydroxy-5-isopropyl-phenyl)-4-(1-methyl-indol-5-yl)-5-hydroxy-[1,2,4] triazole]",death due to excessive body weight loss,"[1]; 2 Gy radiation combined with 150 mg/kg Compound 1, among the animals removed from the study",One of the animals removed later died on Day 45
same,animals removed from the study due to >20% body weight loss,"[1]; 2 Gy radiation combined with 150 mg/kg Compound 1, toxicity on Day 42",2/8
same,animals removed from the study due to >20% body weight loss,"[1]; 4 Gy radiation combined with 150 mg/kg Compound 1, toxicity on Day 34",1/8
same,average bodyweight change relative to the start of the study,[1]; Compound 1 150 mg/kg plus 2 Gy radiation 3 times per week,0.4%
same,average bodyweight change relative to the start of the study,[1]; Compound 1 150 mg/kg plus 3-4 Gy radiation 3 times per week,1.2%
same,average bodyweight change relative to the start of the study,"[1]; Compound 1 alone, 150 mg/kg i.v. 1 time per week",3.2%
same,% T/C value,"[2]; 150 mg/kg Compound 1 alone, i.v., 1 time per week, 4 doses, 10/18 DRD, mock irradiation",28%
same,% T/C value,"[2]; 150 mg/kg Compound 1 i.v. 1 time per week combined with 2 Gy radiation 3 times per week (12 doses), Compound 1 dosed 5 hr before irradiation",−36%
same,% T/C value,"[2]; 150 mg/kg Compound 1 i.v. 1 time per week combined with 3-4 Gy radiation 3 times per week (4 Gy reduced to 3 Gy on Day 40), Compound 1 dosed 5 hr before irradiation",−73%
